The source of these data is PubChem BioAssay (NCI).

Among the test systems are IGROV1 ovarian; SF-295 CNS; ACHN renal; LOX IMVI melanoma; EKVX NSCLC; NCI/ADR-RES ovarian; K-562 leukemia; HS 578T breast; SR leukemia; T-47D breast.
Test in all cases: NCI-60 cell line screen, 48 h

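48-hour exposure; five concentrations; linearly interpolated endpoints. At the TGI there is no net growth.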 Some results are limits rather than exact numbers.

Take `O=c1[nH]c(=O)n(CCOc2ccccc2)cc1Nc1ccccc1`: the TGI in the test on IGROV1 ovarian, in the test on SF-295 CNS, in the test with ACHN renal, in the test on LOX IMVI melanoma, with EKVX NSCLC and in the test on NCI/ADR-RES ovarian was over 100 µM throughout. Further, the TGI in the test with K-562 leukemia, in the test with HS 578T breast and in the test on SR leukemia was over 100 µM each time.
Consider `CCN(CC)CCn1nc(N)c2nc3ccccc3nc21`, for which the TGI in the test on IGROV1 ovarian, with SF-295 CNS, with ACHN renal, in the test with LOX IMVI melanoma, in the test on EKVX NSCLC and with NCI/ADR-RES ovarian was over 100 µM throughout. Moreover, the TGI in the test with K-562 leukemia, with HS 578T breast and in the test with SR leukemia was over 100 µM each time.
As to `O=P1(O)c2ccccc2CCc2ccccc21`, the TGI in the test on IGROV1 ovarian, with SF-295 CNS, in the test on LOX IMVI melanoma, in the test on EKVX NSCLC, with K-562 leukemia and in the test on HS 578T breast was over 100 µM in each case.
As to `O=C(O)CCCn1nnc2c(=O)[nH][nH]c(=O)c21`, the TGI in the test on SF-295 CNS, with ACHN renal, in the test with LOX IMVI melanoma, in the test on EKVX NSCLC, in the test on NCI/ADR-RES ovarian and with K-562 leukemia was over 100 µM in each case. The TGI in the test on SR leukemia is over 100 µM.
`[Cl-].[Rh+3].c1cnc2c(c1)ccc1cccnc12.c1cnc2c(c1)ccc1cccnc12.c1cnc2c(c1)ccc1cccnc12`: the TGI in the test with IGROV1 ovarian, in the test with SF-295 CNS, with ACHN renal, with LOX IMVI melanoma, in the test on EKVX NSCLC and in the test with K-562 leukemia was over 100 µM each time. For the same compound, in the test on SR leukemia, the TGI was over 100 µM.
For the compound `NCCCCC(NC(=O)C(N)Cc1ccc(O)cn1)C(=O)O` (stereo not given), the TGI in the test on IGROV1 ovarian, in the test on SF-295 CNS, in the test on ACHN renal, with LOX IMVI melanoma, in the test on EKVX NSCLC and in the test with NCI/ADR-RES ovarian was over 100 µM throughout. In addition, the TGI in the test with K-562 leukemia, with HS 578T breast and with SR leukemia was over 100 µM in each case.
As to `O=C(N/N=C/C=C/c1ccccc1)[C@H](O)[C@@H](O)C(=O)N/N=C/C=C/c1ccccc1`, the TGI in the test on IGROV1 ovarian, with SF-295 CNS, in the test with ACHN renal, in the test with LOX IMVI melanoma, in the test with EKVX NSCLC and in the test with K-562 leukemia was over 100 µM in each case. For the same compound, in the test on SR leukemia, the TGI is over 100 µM.
As to `c1ccc2c(c1)CC1=C(O2)c2ccccc2OC1`, the TGI with IGROV1 ovarian was over 100 µM; in the test on SF-295 CNS, over 100 µM; in the test with ACHN renal it was over 100 µM; in the test with LOX IMVI melanoma, 40.2 µM; in the test with T-47D breast, 67.9 µM; with EKVX NSCLC, 45.7 µM. For the same compound, the TGI with NCI/ADR-RES ovarian and in the test on SR leukemia was over 100 µM each time.
For the compound `CCOC(=O)N(NC(=O)NC(C)C)c1ccccc1`, the TGI in the test on IGROV1 ovarian, in the test on SF-295 CNS, in the test with ACHN renal, in the test on LOX IMVI melanoma, in the test with EKVX NSCLC and with NCI/ADR-RES ovarian was over 100 µM in each case. Further, the TGI in the test on K-562 leukemia, in the test with HS 578T breast and with SR leukemia was over 100 µM each time.
`Nc1nc(I)nc2c1ncn2C1OC(COS(N)(=O)=O)C(O)C1O` (stereo not given): the TGI in the test with IGROV1 ovarian is 0.0401 µM; with SF-295 CNS, 0.168 µM; in the test on ACHN renal, 0.211 µM; in the test with LOX IMVI melanoma, 0.0251 µM; in the test with EKVX NSCLC, 0.0573 µM; in the test with NCI/ADR-RES ovarian it was under 0.0125 µM. The TGI is 0.37 µM in the test with K-562 leukemia, 0.0273 µM in the test with HS 578T breast and under 0.01 µM in the test on SR leukemia.
In the case of `CC(=O)N(C(C)=O)n1c(Cc2ccc(Cl)cc2)n[nH]c1=O`, the TGI in the test on IGROV1 ovarian, in the test with SF-295 CNS, with ACHN renal, in the test with LOX IMVI melanoma, in the test with EKVX NSCLC and with NCI/ADR-RES ovarian was over 100 µM each time. Also, the TGI in the test on K-562 leukemia, with HS 578T breast and in the test on SR leukemia was over 100 µM each time.
For `Nc1nc(Cl)c(CO)c(NCC2(CO)CC(CCc3ccccc3)C2)n1` (stereo not given), the TGI was over 100 µM in the test on SF-295 CNS; over 100 µM in the test on ACHN renal; 50.4 µM in the test on LOX IMVI melanoma; over 100 µM in the test on EKVX NSCLC; 73.8 µM in the test with NCI/ADR-RES ovarian; 43.1 µM in the test on K-562 leukemia. In the test on SR leukemia, this compound gave a TGI of over 100 µM.
For the compound `CCOCc1c(C)cc(C)c(C2C(C(=O)c3ccccc3)N3c4ccccc4C=CC3C2(C#N)C(=O)OCC)c1C` (stereo not given), the TGI in the test on IGROV1 ovarian is 46.5 µM; in the test on SF-295 CNS, over 100 µM; in the test on ACHN renal, over 100 µM; with LOX IMVI melanoma, over 100 µM; in the test on EKVX NSCLC, 67.3 µM; with NCI/ADR-RES ovarian it was over 100 µM. Moreover, the TGI in the test on K-562 leukemia, in the test with HS 578T breast and in the test with SR leukemia was over 100 µM throughout.
